Values quoted from earlier work, collected in US9907752B2, “Bendamustine solid dispersions and continuous infusion” (priority 2014, dated 2018).
≈ marks a conversion by molar mass, not a printed value.

Legend:
[1] = aqueous solution

solubility in DMSO (DMSO)	solubility in water (water)	SMILES	hydrolysis reaction half times [1]
		Cn1c(CCCC(=O)O)nc2cc(N(CCCl)CCCl)ccc21 [bendamustine, 4-{5-[Bis(2-chloroethyl)amino]-1-methyl-2-benzimidazolyl}butyric acid]	measured in hours rather than seconds
~36 mg/mL (≈ 198 mM)	~36 mg/mL (≈ 198 mM)	OC[C@@H](O)[C@@H](O)[C@H](O)[C@H](O)CO [mannitol]	
